Assay results taken from PubChem BioAssay (NCI).
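Briefly, cells in 96-well plates were exposed to five compound concentrations for 48 h, and endpoints were estimated by linear interpolation. GI50 marks 50% less growth. The concentration for full growth arrest is given as TGI.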

How the values were obtained:
Test in all cases: DTP human tumour cell line panel, 48 h
786-0 renal = system: 786-0 renal
A498 renal = system: A498 renal
A549 NSCLC = system: A549 NSCLC
ACHN renal = system: ACHN renal
BT-549 breast = system: BT-549 breast
CAKI-1 renal = system: CAKI-1 renal
CCRF-CEM leukemia = system: CCRF-CEM leukemia
COLO 205 colon = system: COLO 205 colon
DU-145 prostate = system: DU-145 prostate
EKVX NSCLC = system: EKVX NSCLC
HCC-2998 colon = system: HCC-2998 colon
HCT-116 colon = system: HCT-116 colon
HCT-15 colon = system: HCT-15 colon
HL-60(TB) leukemia = system: HL-60(TB) leukemia
HOP-62 NSCLC = system: HOP-62 NSCLC
HOP-92 NSCLC = system: HOP-92 NSCLC
HS 578T breast = system: HS 578T breast
HT29 colon = system: HT29 colon
IGROV1 ovarian = system: IGROV1 ovarian
K-562 leukemia = system: K-562 leukemia
KM12 colon = system: KM12 colon
LOX IMVI melanoma = system: LOX IMVI melanoma
M14 melanoma = system: M14 melanoma
MALME-3M melanoma = system: MALME-3M melanoma
MCF7 breast = system: MCF7 breast
MDA-MB-231 breast = system: MDA-MB-231 breast
MDA-MB-435 = system: MDA-MB-435
MOLT-4 leukemia = system: MOLT-4 leukemia
NCI-H226 lung = system: NCI-H226 lung
NCI-H23 lung = system: NCI-H23 lung
NCI-H460 lung = system: NCI-H460 lung
NCI-H522 lung = system: NCI-H522 lung
NCI/ADR-RES ovarian = system: NCI/ADR-RES ovarian
OVCAR-3 ovarian = system: OVCAR-3 ovarian
OVCAR-4 ovarian = system: OVCAR-4 ovarian
OVCAR-5 ovarian = system: OVCAR-5 ovarian
OVCAR-8 ovarian = system: OVCAR-8 ovarian
PC-3 prostate = system: PC-3 prostate
RPMI-8226 leukemia = system: RPMI-8226 leukemia
RXF 393 renal = system: RXF 393 renal
SF-268 CNS = system: SF-268 CNS
SF-295 CNS = system: SF-295 CNS
SF-539 CNS = system: SF-539 CNS
SK-MEL-2 melanoma = system: SK-MEL-2 melanoma
SK-MEL-28 melanoma = system: SK-MEL-28 melanoma
SK-MEL-5 melanoma = system: SK-MEL-5 melanoma
SK-OV-3 ovarian = system: SK-OV-3 ovarian
SN12C renal = system: SN12C renal
SNB-19 CNS = system: SNB-19 CNS
SNB-75 CNS = system: SNB-75 CNS
SR leukemia = system: SR leukemia
SW-620 colon = system: SW-620 colon
T-47D breast = system: T-47D breast
TK-10 renal = system: TK-10 renal
U251 CNS = system: U251 CNS
UACC-257 melanoma = system: UACC-257 melanoma
UACC-62 melanoma = system: UACC-62 melanoma
UO-31 renal = system: UO-31 renal

Cc1ccc(-c2nc(-c3cn(C)c4ncccc34)cs2)cc1
GI50 (786-0 renal): 6.09 µM
TGI (786-0 renal): 19.8 µM
GI50 (A498 renal): 0.277 µM
TGI (A498 renal): 8.24 µM
GI50 (A549 NSCLC): 5.62 µM
TGI (A549 NSCLC): 21.3 µM
GI50 (ACHN renal): 7.65 µM
TGI (ACHN renal): 29.2 µM
GI50 (BT-549 breast): 8 µM
TGI (BT-549 breast): 32.4 µM
GI50 (CAKI-1 renal): 2.27 µM
TGI (CAKI-1 renal): 15.2 µM
GI50 (CCRF-CEM leukemia): 14.7 µM
TGI (CCRF-CEM leukemia): > 80 µM
GI50 (COLO 205 colon): 2.82 µM
TGI (COLO 205 colon): 10.5 µM
GI50 (DU-145 prostate): 7.42 µM
TGI (DU-145 prostate): 21.3 µM
GI50 (EKVX NSCLC): 4.61 µM
TGI (EKVX NSCLC): 43.7 µM
GI50 (HCC-2998 colon): 8.96 µM
TGI (HCC-2998 colon): 22.8 µM
GI50 (HCT-116 colon): 3.11 µM
TGI (HCT-116 colon): 12.3 µM
GI50 (HCT-15 colon): 3.01 µM
TGI (HCT-15 colon): 21.3 µM
GI50 (HL-60(TB) leukemia): 2.54 µM
TGI (HL-60(TB) leukemia): 26.2 µM
GI50 (HOP-62 NSCLC): 7.71 µM
TGI (HOP-62 NSCLC): 22 µM
GI50 (HOP-92 NSCLC): 4.73 µM
TGI (HOP-92 NSCLC): 23.8 µM
GI50 (HS 578T breast): 4.71 µM
TGI (HS 578T breast): 26.6 µM
GI50 (HT29 colon): 2.32 µM
TGI (HT29 colon): 8.51 µM
GI50 (IGROV1 ovarian): 7.26 µM
TGI (IGROV1 ovarian): 32.2 µM
GI50 (K-562 leukemia): 1.91 µM
TGI (K-562 leukemia): > 34.5 µM
GI50 (KM12 colon): 1.2 µM
TGI (KM12 colon): 14 µM
GI50 (LOX IMVI melanoma): 5.06 µM
TGI (LOX IMVI melanoma): 18.1 µM
GI50 (M14 melanoma): 2.35 µM
TGI (M14 melanoma): 8.18 µM
GI50 (MALME-3M melanoma): 4.85 µM
TGI (MALME-3M melanoma): 26.5 µM
GI50 (MCF7 breast): 2.39 µM
TGI (MCF7 breast): 15.9 µM
GI50 (MDA-MB-231 breast): 4.88 µM
TGI (MDA-MB-231 breast): 21.5 µM
GI50 (MDA-MB-435): 0.402 µM
TGI (MDA-MB-435): 2.88 µM
GI50 (MOLT-4 leukemia): 4.24 µM
TGI (MOLT-4 leukemia): 30.3 µM
GI50 (NCI-H226 lung): 4.35 µM
TGI (NCI-H226 lung): 24.7 µM
GI50 (NCI-H23 lung): 7.12 µM
TGI (NCI-H23 lung): 31.3 µM
GI50 (NCI-H460 lung): 3.43 µM
TGI (NCI-H460 lung): 14.9 µM
GI50 (NCI-H522 lung): 2.14 µM
TGI (NCI-H522 lung): 16.7 µM
GI50 (NCI/ADR-RES ovarian): 1.42 µM
TGI (NCI/ADR-RES ovarian): 6.8 µM
GI50 (OVCAR-3 ovarian): 3.23 µM
TGI (OVCAR-3 ovarian): 11.3 µM
GI50 (OVCAR-4 ovarian): 12.8 µM
TGI (OVCAR-4 ovarian): 46.4 µM
GI50 (OVCAR-5 ovarian): 7.78 µM
TGI (OVCAR-5 ovarian): 26.5 µM
GI50 (OVCAR-8 ovarian): 8.99 µM
TGI (OVCAR-8 ovarian): 38.9 µM
GI50 (PC-3 prostate): 4.49 µM
TGI (PC-3 prostate): > 44.1 µM
GI50 (RPMI-8226 leukemia): 7.37 µM
TGI (RPMI-8226 leukemia): > 69.8 µM
GI50 (RXF 393 renal): 2.99 µM
TGI (RXF 393 renal): 13.7 µM
GI50 (SF-268 CNS): 7.83 µM
TGI (SF-268 CNS): 39.2 µM
GI50 (SF-295 CNS): 2.3 µM
TGI (SF-295 CNS): 11.1 µM
GI50 (SF-539 CNS): 5.59 µM
TGI (SF-539 CNS): 18.7 µM
GI50 (SK-MEL-2 melanoma): 6.77 µM
TGI (SK-MEL-2 melanoma): 34 µM
GI50 (SK-MEL-28 melanoma): 10.2 µM
TGI (SK-MEL-28 melanoma): 26.4 µM
GI50 (SK-MEL-5 melanoma): 3.7 µM
TGI (SK-MEL-5 melanoma): 14.6 µM
GI50 (SK-OV-3 ovarian): 6.86 µM
TGI (SK-OV-3 ovarian): 27.5 µM
GI50 (SN12C renal): 5 µM
TGI (SN12C renal): 22.8 µM
GI50 (SNB-19 CNS): 5.27 µM
TGI (SNB-19 CNS): 30.5 µM
GI50 (SNB-75 CNS): 4.16 µM
TGI (SNB-75 CNS): 22.4 µM
GI50 (SR leukemia): 0.442 µM
TGI (SR leukemia): 21.8 µM
GI50 (SW-620 colon): 1.95 µM
TGI (SW-620 colon): 8.91 µM
GI50 (T-47D breast): 2.53 µM
TGI (T-47D breast): 18.6 µM
GI50 (TK-10 renal): 6.74 µM
TGI (TK-10 renal): 21.6 µM
GI50 (U251 CNS): 4.4 µM
TGI (U251 CNS): 17 µM
GI50 (UACC-257 melanoma): 9.41 µM
TGI (UACC-257 melanoma): 28 µM
GI50 (UACC-62 melanoma): 3.17 µM
TGI (UACC-62 melanoma): 16.3 µM
GI50 (UO-31 renal): 8.96 µM
TGI (UO-31 renal): 40.5 µM
